Measured values published in article PMC10377034, “Syntheses of 25-Adamantyl-25-alkyl-2-methylidene-1α,25-dihydroxyvitamin D3 Derivatives with Structure–Function Studies of Antagonistic and Agonistic Active Vitamin D Analogs” (Biomolecules, 2023).

Key:
[1] = tested on: human dedifferentiated fat (DFAT) cells; test: Osteogenic differentiation assay: ALP activity in human DFAT cells; format: cell-based; conditions: osteogenic medium, 100 nM, 7 days, natural hormone 1 = 100%
[2] = biological target: T1, recombinant hVDR-LBD (Homo sapiens, UniProt P11473); conditions: relative to 1,25(OH)2D3
T1 sequence (P11473 140-427): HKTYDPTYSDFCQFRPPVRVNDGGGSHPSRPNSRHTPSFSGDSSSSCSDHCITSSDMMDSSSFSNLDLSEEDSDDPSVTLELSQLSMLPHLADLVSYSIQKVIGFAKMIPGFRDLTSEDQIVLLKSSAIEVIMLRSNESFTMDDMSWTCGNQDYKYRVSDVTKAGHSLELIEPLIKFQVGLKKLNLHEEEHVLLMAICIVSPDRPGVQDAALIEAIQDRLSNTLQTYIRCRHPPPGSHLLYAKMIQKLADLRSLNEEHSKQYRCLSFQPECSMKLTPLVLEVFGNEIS
Method: The pGEX-hVDR and pGEX were expressed for a GST-VDR fusion protein and a control GST protein, respectively, in Escherichia coli BL21 (Merck, Darmstadt, Germany). The bacteria were lysed by sonication in a sonication buffer (50 mM Tris-HCl, pH 8.0, 50 mM NaCl, 1 mM EDTA, and 1 mM DTT). The supernatant proteins (1 μg) were diluted in a binding buffer (25 mM Tris, pH 7.5, 100 mM KCl, 25 mM DTT, 4 mM CHAPS, pH 7.5) containing bovine serum albumin (100 μg/mL). A solution containing each test compound in 15 μL of EtOH was added to 570 μL of the GST protein solution in each tube. After being vortexed 2–3 times, the mixture was incubated for 30 min at room temperature. […] After being vortexed 2–3 times, the whole mixture was allowed to stand at 4 °C for 20 h, and 400 μL of dextran-coated charcoal solution (Sigma) was added to remove free ligands.
All values represent the means, and error bars are the standard deviations derived from triplicate assays.

[3] = tested on: CYP24A1 expression in H292 cells; test: CYP24A1 expression (RT-qPCR) in H292 cells; conditions: H292 lung cells, 100 nM, 24 h
Method: (§1) HEK293 human kidney cells (RIKEN Cell Bank, Tsukuba, Japan) were cultured in Dulbecco’s modified Eagle’s medium (DMEM) (Fujifilm Wako Pure Chemical Corporation, Tokyo, Japan) containing 5% fetal bovine serum (FBS), 100 U/mL penicillin, and 0.1 mg/mL streptomycin (Nacalai Tesque, Kyoto, Japan). SW480 human colon carcinoma cells (American Type Culture Collection, Manassas, VA) and HaCaT immortalized keratinocyte cells (kindly provided by Dr. Tadashi Terui, Department of Dermatology, Nihon University School of Medicine) were cultured in DMEM containing 10% FBS, 100 U/mL penicillin, and 0.1 mg/mL streptomycin. MG63 human osteosarcoma cells (RIKEN Cell Bank) and lung-derived H292 cells (American Type Culture Collection) were cultured in minimum essential medium containing 10% FBS, 100 U/mL penicillin, and 0.1 mg/mL streptomycin. […] All cells were cultured at 37 °C in a humidified atmosphere containing 5% CO2.
(§2) For gene expression analysis, 1 × 10^4 cells per well were plated in a 24-well plate. After 24 h, the cells were treated with an ethanol control or 100 nM of each test compound for 24 h. […] Real-time PCR was performed on the ABI PRISM 7000 sequence detection system (Thermo Fisher Scientific, Waltham, MA, USA) using Power SYBR Green PCR master mix (Thermo Fisher Scientific).

[4] = tested on: CYP24A1 expression in MG63 cells; test: CYP24A1 expression (RT-qPCR) in MG63 cells; conditions: MG63 bone cells, 100 nM, 24 h
Method: as §1, §2

Structure (SMILES): C=C1[C@H](O)CC(=C/C=C2\CCC[C@]3(C)[C@@H]([C@H](C)CC#C[C@](O)(CCCC)C45CC6CC(CC(C6)C4)C5)CC[C@@H]23)C[C@H]1O [ADKM6, (25S)-25-(1-Adamantyl)-1α,25-dihydroxy-2-methylidene-26-propyl-23-yne-19,27-dinorvitamin D3]
- ALP activity [1]: 62.4%
- VDR affinity, % of that of 1,25(OH)2D3 [2]: 23%
- CYP24A1 expression relative to natural hormone 1 [3]: 87.9%
- CYP24A1 expression relative to natural hormone 1 [4]: 54.2%
